Assays:
[1] = tested on: Adenylate cyclase; experiment: Adenylate cyclase inhibition by methylmalonic acid: cAMP concentration in B42NPCs; format: cell-based, human; settings: methylmalonic acid 50 μM or 100 μM in culture fluid, 24 hours
Protocol: cAMP is produced from ATP by Adenylate cyclase. From this point of view, an investigation was conducted on whether methylmalonic acid would inhibit Adenylate cyclase.

[2] = tested on: Adenylate cyclase, CREB, phosphorylated CREB; experiment: Protein expression analysis by Western Blotting in B42NPCs; format: cell-based, human; settings: presence or absence of methylmalonic acid
Protocol: 2. Meanwhile, the protein expression analysis shown in FIG. 6 was carried out based on the existing Western Blotting method.

[3] = tested on: lethal methylmalonic acid seizure model; experiment: In vivo test using survival rate as index, lethal methylmalonic acid seizure model; parameters: species or system C57BL/6J mice; settings: db-cAMP 10 μg/kg/dose subcutaneous
Protocol: An evaluation of administration of candidate drugs was carried out using the survival rate as an index, using a lethal methylmalonic acid seizure model.
1. A […] methylmalonic acid solution was intraperitoneally administered to eight-week old C57BL/6J mice at a dose of 20 ml/kg, and thus a lethal methylmalonic acid seizure model was produced.
2. After one day, after two days, and after three days from the administration of methylmalonic acid, subcutaneous administration of db-cAMP (10 μg/kg/dose) as a candidate drug was performed, and a comparison of the survival rates in an administered group and a non-administered group was carried out.

[4] = tested on: methylmalonic acidemia-derived NPCs; experiment: cAMP production ability test with Forskolin (intracellular cAMP ELISA); format: cell-based, human; settings: Forskolin 10 μmol/l, after 24 hours; compared with NPCs from normal iPS cells
Protocol: (3) On the occasion of performing measurement, a pretreatment of cells was carried out. Cells were detached from the culture plate, the number of cells was counted, and centrifugation was performed. After the centrifugation, the supernatant was suctioned, and the residue was suspended in a 0.1 M HCl solution at a concentration of 1×10^6/cells/mL. In the case of cells with a known cell count, a series of these operations was omitted, and 0.1 M HCl was introduced directly onto the culture plate while the cells were adhered. After suspending, the suspension was incubated at room temperature for 10 minutes and then was centrifuged at 600 g/5 minutes. […] (4) For the measurement, measurement was carried out through a series of the following processes. • A neutralizing liquid (Neutralizing reagent) was introduced in an amount of 50 μL into wells other than total activity (TA) and blanks. • Subsequently, 100 μL of a standard diluent was added to non-specific binding (NBS) and BO (0 pmol/mL standard). Furthermore, 50 μL of a standard diluent was added to the wells of NBS. […] The light absorbance at 405 nm was measured. […]

## CC(C(=O)O)C(=O)O [methylmalonic acid]
[1]
  cAMP production power: as the methylmalonic acid concentration in the culture fluid is higher, the cAMP production power is decreased
[2]
  total amounts of protein expression of Adenylate cyclase and CREB: constant

## CCCC(=O)Nc1ncnc2c1ncn2[C@@H]1O[C@@H]2COP(=O)(O)O[C@H]2[C@H]1OC(=O)CCC [db-cAMP, dibutyl-cAMP]
[3]
  vital prognosis based on seizure originating from methylmalonic acidemia: markedly ameliorated
[3]; non-administered group 14.7%, p<0.001
  survival rate after two days: 75.0%
[3]; non-administered group 35.3%
  survival rate one day after the administration of methylmalonic acid: 85.0%

## C=C[C@@]1(C)CC(=O)[C@]2(O)[C@@]3(C)[C@@H](O)CCC(C)(C)[C@@H]3[C@H](O)[C@H](OC(C)=O)[C@@]2(C)O1 [Forskolin, (3R,4aR,5S,6S,6aS,10S,10aR,10bS)-6,10,10b-trihydroxy-3,4a,7,7,10a-pentamethyl-1-oxo-3-vinyldodecahydro-1H-benzo[f]chromen-5-yl acetate]
[4]
  reactivity to Forskolin (intracellular cAMP concentration): decrease in reactivity to Forskolin was recognized
